Target: MMP-13 (Homo sapiens, UniProt P45452)
Test: EnzoLyte 520 Generic MMP Assay Kit, 5-FAM/QXL520 FRET peptide substrate
Format: biochemical
Excerpt: The EnzoLyte™ 520 Generic MMP Assay Kit (AnaSpec Inc.) can detect the activity of several MMPs including MMP-1, 2, 3, 7, 8, 9, 13, and 14. This kit uses a 5-FAM/QXL™520 fluorescence resonance energy transfer (FRET) peptide as an MMP substrate.

| IC50 [nM] | Compound |
| --- | --- |
| 180 | CNC(=O)[C@@H](NC(=O)c1ccc(-c2cccc(CNC(=O)c3ccnnc3)c2)o1)C(C)C [N-[3-(5-{[(1S)-2-methyl-1-(methylcarbamoyl)propyl]carbamoyl}-2-furyl)benzyl]pyridazine-4-carboxamide] |
| 101 | CNC(=O)[C@@H](NC(=O)c1ccc(-c2cccc(CNC(=O)C3CCCCO3)c2)o1)C(C)C (stereo partly drawn) [N-[3-(5-{[(1S)-2-methyl-1-(methylcarbamoyl)propyl]carbamoyl}-2-furyl)benzyl]tetrahydro-2H-pyran-2-carboxamide] |
| 337 | CNC(=O)[C@@H](NC(=O)c1ccc(-c2cccc(CNC(=O)C3CCOCC3)c2)o1)C(C)C [N-[3-(5-{[(1S)-2-methyl-1-(methylcarbamoyl)propyl]carbamoyl}-2-furyl)benzyl]tetrahydro-2H-pyran-4-carboxamide] |
| 496 | CNC(=O)[C@@H](NC(=O)c1ccc(-c2ccc(NC(=O)c3cc4ccccc4o3)cc2)o1)C1CCCCC1 [N-[4-(5-{[(1S)-1-cyclohexyl-2-(methylamino)-2-oxoethyl]carbamoyl}furan-2-yl)phenyl]-1-benzofuran-2-carboxamide] |
| 140 | CNC(=O)[C@@H](NC(=O)c1ccc(-c2ccc(NC(=O)c3cn(C)cn3)cc2)o1)C1CCCCC1 [N-[4-(5-{[(1S)-1-cyclohexyl-2-(methylamino)-2-oxoethyl]carbamoyl}furan-2-yl)phenyl]-1-methyl-1H-imidazole-4-carboxamide] |
| 31 | CNC(=O)[C@@H](NC(=O)c1ccc(-c2ccc(NC(=O)c3ccn(C)n3)cc2)o1)C1CCCCC1 [N-[4-(5-{[(1S)-1-cyclohexyl-2-(methylamino)-2-oxoethyl]carbamoyl}furan-2-yl)phenyl]-1-methyl-1H-pyrazole-3-carboxamide] |
| 180 | CNC(=O)[C@@H](NC(=O)c1ccc(-c2ccc(NC(=O)c3cnn(C)c3)cc2)o1)C1CCCCC1 [N-[4-(5-{[(1S)-1-cyclohexyl-2-(methylamino)-2-oxoethyl]carbamoyl}furan-2-yl)phenyl]-1-methyl-1H-pyrazole-4-carboxamide] |
| 99 | CNC(=O)[C@@H](NC(=O)c1ccc(-c2ccc(NC(=O)c3ccnn3C)cc2)o1)C1CCCCC1 [N-[4-(5-{[(1S)-1-cyclohexyl-2-(methylamino)-2-oxoethyl]carbamoyl}furan-2-yl)phenyl]-1-methyl-1H-pyrazole-5-carboxamide] |
| 93 | CNC(=O)[C@@H](NC(=O)c1ccc(-c2ccc(NC(=O)c3occc3C)cc2)o1)C1CCCCC1 [N-[4-(5-{[(1S)-1-cyclohexyl-2-(methylamino)-2-oxoethyl]carbamoyl}furan-2-yl)phenyl]-3-methylfuran-2-carboxamide] |
| 63 | CNC(=O)[C@@H](NC(=O)c1ccc(-c2ccc(NC(=O)c3cc(C)c(C)o3)cc2)o1)C1CCCCC1 [N-[4-(5-{[(1S)-1-cyclohexyl-2-(methylamino)-2-oxoethyl]carbamoyl}furan-2-yl)phenyl]-4,5-dimethylfuran-2-carboxamide] |
| 87 | CNC(=O)[C@@H](NC(=O)c1ccc(-c2ccc(NC(=O)c3cc(C)[nH]n3)cc2)o1)C1CCCCC1 [N-[4-(5-{[(1S)-1-cyclohexyl-2-(methylamino)-2-oxoethyl]carbamoyl}furan-2-yl)phenyl]-5-methyl-1H-pyrazole-3-carboxamide] |
| 57 | CNC(=O)[C@@H](NC(=O)c1ccc(-c2ccc(NC(=O)c3ccc(C)o3)cc2)o1)C1CCCCC1 [N-[4-(5-{[(1S)-1-cyclohexyl-2-(methylamino)-2-oxoethyl]carbamoyl}furan-2-yl)phenyl]-5-methylfuran-2-carboxamide] |
| 150 | CNC(=O)[C@@H](NC(=O)c1ccc(-c2ccc(NC(=O)c3cn4c(C)cccc4n3)cc2)o1)C1CCCCC1 [N-[4-(5-{[(1S)-1-cyclohexyl-2-(methylamino)-2-oxoethyl]carbamoyl}furan-2-yl)phenyl]-5-methylimidazo[1,2-a]pyridine-2-carboxamide] |

— patent publication US8637550B2, “Heteroaryl diamide compounds useful as MMP-13 inhibitors” (Boehringer Ingelheim International GmbH, priority 2008, dated 2014)
